Reference: PubChem BioAssay AID1188 (EPA DSSTox, 2008)
Where “and” joins values, the source holds several entries; their conditions need not be identical. Equal values may be shown once. Calls of active or inactive are those of the source.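 How the source made its calls: active means a concentration killing half the fathead minnows in the acute test was determined; inconclusive means some fish died but not half at top dose; inactive means no fish died even at top dose.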

System: Fathead minnow (Pimephales promelas) acute toxicity, lethality
Assay: DSSTox (EPAFHM) EPA Fathead Minnow Acute Toxicity
From the text: The EPA Fathead Minnow Acute Toxicity database was generated by the U.S. EPA Mid-Continental Ecology Division (MED) for the purpose of developing an expert system to predict acute toxicity from chemical structure based on mode of action considerations. […] A second valuable aspect of this database, from a QSAR modeling perspective, is the inclusion of general mode-of-action (MOA) classifications of acute toxicity response for individual chemicals derived from study results. MOA assignments are biologically based classifications, allowing definition of chemical similarity based upon biological activity instead of organic chemistry functional class as most commonly employed in QSAR study. MOA classifications should strengthen the scientific basis for construction of individual QSARs. However, it is cautioned that the broad MOA categorizations should not be construed to represent a single molecular mechanism; for example, CNS seizure agents and respiratory inhibitors are known to act through a variety of receptors. The EPA Fathead Minnow database and results have been used by EPA MED to build components of the ASTER prediction system, which incorporates MOA-based QSARs for the prediction of aquatic toxicity of environmental and industrial chemicals. Briefly, MOA classifications for individual chemicals, derived from experiments and provided in the EPA Fathead Minnow database, were used to derive substructural rules for assigning a new chemical to an MOA category based solely on chemical structure. Once a new chemical is assigned to an MOA category on this basis, the logP-based QSAR for that MOA category is applied.
The DSSTox EPAFHM database (available from the DSSTox Source URL) includes information pertaining to organic chemical class assignments (ChemClass_FHM), acute toxicity in fathead minnow (LC50_mg), dose-response assessments (LC50_Ratio, ExcessToxicityIndex), behavioral assessments (FishBehaviorTest), joint toxicity MOA evaluations of mixtures (MOA_MixtureTest), and additional MOA evaluation of fish acute toxicity syndrome (FishAcuteToxSyndrome) in rainbow trout. All of these indicators, to the extent available, were considered in the determination of MOA and, additionally, were used to determine a level of confidence in the MOA assignment for each chemical (MOA_Confidence). […] Activity Score is mapping of LOG10 (1/LC50_mmol) activity values spanning activity range [MIN, MAX] onto Integer 1-100 Activity range, where 100 is highest potency and 1 is lowest. If Activity Outcome is "active": Activity Score = 100 * INTEGER[(log10(1/ LC50_mmol) - MIN)/([…])].

## CCCCOC(=O)c1ccc(C(=O)OCCCC)cc1
  Potency: 2.12 µM

## NC(=O)c1ccccc1
  Potency: 5460 µM

## ClCCl
  Potency: 3890 µM

## CCOC(=O)CCCCCCCCC(=O)OCC
  Potency: 10.5 µM

## CCCCCCCCCCCCCO
  outcome: inactive; moa not determined either due to lack of toxicity at saturation or late test res

## CC1CNCCN1 (stereo not drawn)
  Potency: 22400 µM

## O=C1NS(=O)(=O)c2ccccc21
  Potency: 82000 µM

## NCCN
  Potency: 3660 µM

## c1ccc(-c2cccc(-c3ccccc3)n2)cc1
  Potency: 0.908 µM

## O=CN(c1ccccc1)c1ccccc1
  Potency: 154 µM

## CCCCC(C)=O
  Potency: 4270 µM

## C=Cc1ccc(C(C)(C)C)cc1
  Potency: 3.06 µM

## Cc1ccccc1C#N
  Potency: 382 µM

## Cc1ccccc1
  Potency: 368 µM

## CC(=O)C(C)C
  Potency: 10000 µM

## COc1cc(O)c(C=O)c(OC)c1
  Potency: 14.7 µM

## CC(C)(C)SC(C)(C)C
  Potency: 199 µM

## Oc1cccc2ccccc12
  Potency: 32.1 µM

## C[N+](C)(C)c1ccccc1
  Potency: 924 µM and 1000 µM

## CC1(C)CCC(C)(C)O1
  Potency: 1310 µM

## O=Cc1ccc(Cl)cc1
  Potency: 15.6 µM

## O=Cc1ccc(O)cc1O
  Potency: 95 µM

## CC(C)c1ccc(C=O)cc1
  Potency: 44.7 µM

## CC(C)SSC(C)C
  Potency: 55.3 µM

## CC/C=C\CCO
  Potency: 3800 µM

## CCCCCCBr
  Potency: 20.9 µM

## CCCC(C)C1(CC)C(=O)N=C(O)NC1=O (stereo not drawn)
  Potency: 199 µM

## CCCCOC(=O)c1cccc(C(=O)OCCCC)c1
  Potency: 3.23 µM

## IC(I)I
  Potency: 7.42 µM

## CC/C=C/CCO
  Potency: 2710 µM

## CCOC(C)=O
  Potency: 2610 µM

## O=[N+]([O-])c1cc([N+](=O)[O-])c2ccccc2c1O
  Potency: 14.5 µM

## CCN(CCO)c1cccc(C)c1
  Potency: 295 µM

## CCC(C)C(C)C=O (stereo not drawn)
  Potency: 140 µM

## Oc1c(Cl)cc(Cl)c(Cl)c1Cc1c(O)c(Cl)cc(Cl)c1Cl
  Potency: 0.0516 µM

## O=Cc1cc([N+](=O)[O-])ccc1Cl
  Potency: 20.9 µM

## O=Cc1ccccc1[N+](=O)[O-]
  Potency: 95.3 µM

## CC(=O)CC(=O)c1ccccc1
  Potency: 6.78 µM

## Cc1cc(C)c(O)c(C)c1
  Potency: 95.4 µM

## Cc1ccc(N(C)C)cc1
  Potency: 362 µM

## CCCCCCCCCCc1ccc(N)cc1
  Potency: 0.266 µM

## O[C@@H]1C[C@H]2CC[C@@H]1C2
  Potency: 2030 µM

## Cc1ccc(S(=O)(=O)n2ccnc2)cc1
  Potency: 188 µM

## C1OCOCO1
  Potency: 66100 µM

## COc1ccc(O)cc1
  Potency: 886 µM

## C1C2CC3CC1CC(C2)C3
  Potency: 2.06 µM

## CCc1ccccn1
  Potency: 3860 µM

## CC(=O)c1ccncc1
  Potency: 1390 µM

## c1ccc2ccccc2c1
  Potency: 47.9 µM

## CCOC(=O)c1ccc(N)cc1
  Potency: 216 µM

## OCCOc1ccccc1
  Potency: 2490 µM

## ClC=C(Cl)Cl
  Potency: 336 µM

## C=C(C)C(=O)OCC1CCCO1 (stereo not drawn)
  Potency: 204 µM

## CCOc1cc(C=O)ccc1O
  Potency: 527 µM

## C=CC(=O)OCCO
  Potency: 41.4 µM

## CCOC(=O)C(Cc1ccccc1)C(=O)OCC
  Potency: 21.7 µM

## CC(C)[C@@H]1CC[C@@H](C)C[C@H]1O
  Potency: 121 µM

## COC(=O)c1ccc(O)cc1O
  Potency: 272 µM

## c1ccc(CC2=NCCN2)cc1
  Potency: 1800 µM

## c1ccc(Nc2ccccc2)cc1
  Potency: 22.4 µM

## O=C(O)c1cccc(C(=O)O)n1
  Potency: 1930 µM

## CCCCc1ccc(N)cc1
  Potency: 68 µM

## CC(C)(c1cc(Cl)c(O)c(Cl)c1)c1cc(Cl)c(O)c(Cl)c1
  Potency: 3.63 µM

## CCCSCCSCCC
  Potency: 42.2 µM

## CNC(=O)O/N=C/C(C)(C)SC
  Potency: 4.52 µM

## CCN(CC)c1ccc(C=O)c(O)c1
  Potency: 27.7 µM

## CCCCCCCCCCN
  Potency: 6.55 µM

## Brc1nc(Br)c(Br)[nH]1
  Potency: 20.1 µM

## C[CH2][Sn]([CH2]C)([CH2]C)[CH2]C
  Potency: 0.0468 µM

## NCCO
  Potency: 33900 µM

## Cc1ccc(SSc2ccc(C)cc2)cc1
  outcome: inactive; moa not determined either due to lack of toxicity at saturation or late test res

## CC(Cl)(Cl)Cl
  Potency: 355 µM

## O=C(c1ccc(Br)cc1)c1cccnc1
  Potency: 77.8 µM

## Brc1ccsc1
  Potency: 38 µM

## C#CCCO
  Potency: 515 µM

## CC(C)[C@H](C(=O)OC(C#N)c1cccc(Oc2ccccc2)c1)c1ccc(OC(F)F)cc1 (stereo partly drawn)
  Potency: 0.000421 µM

## CCCCCCCN
  Potency: 189 µM

## CCC(C)N (stereo not drawn)
  Potency: 3760 µM
